Laboratory results from DBAASP.
Converted amounts (≈) assume the structure as drawn. Each block holds one compound with its values, some of them ahead of it.

Key:
Assay in all cases: ≥ marks a high value that may be exact or a test limit, other limits are often not marked, values filed in µg/mL are converted to µM
[1] = tested on: Staphylococcus aureus ATCC 25923
[2] = tested on: Candida albicans ATCC 90028
[3] = tested on: Escherichia coli ATCC 25726
[4] = tested on: Acinetobacter baumannii I NM8
[5] = tested on: Pseudomonas aeruginosa ATCC 27853
[6] = tested on: Klebsiella pneumoniae ATCC 700603
[7] = tested on: Pseudomonas aeruginosa 5106
Escherichia coli 09-240 = tested on: Escherichia coli 09-240
[8] = tested on: Klebsiella pneumoniae 01-239
[9] = tested on: Enterobacter cloacae 06-267
[10] = tested on: Candida glabrata ATCC 90030
[11] = tested on: Staphylococcus aureus ATCC 29213
[12] = tested on: Candida tropicalis ATCC 750
[13] = tested on: Pseudomonas aeruginosa 3599
Escherichia coli 5509 = tested on: Escherichia coli 5509
[14] = tested on: Acinetobacter baumannii 5821
[15] = tested on: Candida parapsilosis ATCC 22019
[16] = tested on: Staphylococcus aureus 06-051
Escherichia coli 09-280 = tested on: Escherichia coli 09-280
[17] = tested on: Staphylococcus aureus 01-001
Escherichia coli 170 = tested on: Escherichia coli 170
[18] = tested on: Enterobacter cloacae 14-262
[19] = tested on: Pseudomonas aeruginosa ATCC 9027
Candida albicans SC5314 = tested on: Candida albicans SC5314
[20] = tested on: Cryptococcus neoformans var. grubii H99
[21] = tested on: Klebsiella pneumoniae 01-252
[22] = tested on: Cryptococcus neoformans var. neoformans B3501
[23] = tested on: Escherichia coli ATCC 25922

MIC [1]: 6 µM (≈ 17.3 µg/mL)
MIC [2]: 25 µM (≈ 72 µg/mL)
MIC [3]: 25 µM (≈ 72 µg/mL)
MIC [4]: 12.5 µM (≈ 36 µg/mL)
MIC [5]: 6 µM (≈ 17.3 µg/mL)
MIC [6]: 25 µM (≈ 72 µg/mL)
SMILES: CC[C@H](C)[C@H](NC(=O)[C@H](CC(C)C)NC(=O)[C@H](Cc1cnc[nH]1)NC(=O)[C@@H]1CCCN1C(=O)[C@H](CC(C)C)NC(=O)[C@@H](NC(=O)[C@H](CCCCN)NC(=O)[C@H](C)NC(=O)[C@@H](NC(=O)CNC(=O)[C@H](CCCCN)NC(=O)[C@H](CC(C)C)NC(=O)CNC(=O)[C@H](CC(C)C)NC(=O)[C@H](CCCCN)NC(=O)[C@H](CC(C)C)NC(=O)[C@H](CC(C)C)NC(=O)[C@@H]1CCCN1C(=O)CNC(=O)[C@H](CC(C)C)NC(=O)[C@H](Cc1ccccc1)NC(=O)CN)C(C)C)C(C)C)C(=O)N1CCC[C@H]1C(=O)N[C@@H](CO)C(=O)N[C@@H](CCCN=C(N)N)C(=O)N[C@@H](CCC(N)=O)C(=O)N[C@@H](CCC(N)=O)C(=O)O [GFLGPLLKLGLKGVAKVLPHLIPSRQQ]

MIC [7]: ≥ 32 µM
MIC (Escherichia coli 09-240): 30 µM (≈ 43 µg/mL)
MIC [8]: 30 µM (≈ 43 µg/mL)
MIC [9]: ≥ 32 µM
MIC [10]: ≥ 400 µM
MIC [11]: 8 µM (≈ 11.5 µg/mL)
MIC [1]: 10 µM (≈ 14.3 µg/mL)
MIC [12]: 25 µM (≈ 35.8 µg/mL)
MIC [13]: ≥ 32 µM
MIC (Escherichia coli 5509): ≥ 32 µM
MIC [14]: 10 µM (≈ 14.3 µg/mL)
MIC [15]: ≥ 400 µM
MIC [16]: 4 µM (≈ 5.74 µg/mL)
MIC (Escherichia coli 09-280): ≥ 32 µM
MIC [17]: 4 µM (≈ 5.74 µg/mL)
MIC (Escherichia coli 170): ≥ 32 µM
MIC [18]: ≥ 32 µM
MIC [19]: 6 µM (≈ 8.6 µg/mL)
MIC (Candida albicans SC5314): 25 µM (≈ 35.8 µg/mL)
MIC [20]: 25 µM (≈ 35.8 µg/mL)
MIC [5]: > 32 µM
MIC [21]: ≥ 32 µM
MIC [22]: 12.5 µM (≈ 17.9 µg/mL)
MIC [23]: 15 µM (≈ 21.5 µg/mL)
SMILES: CC[C@H](C)[C@H](N)C(=O)N[C@@H](CC(C)C)C(=O)N[C@@H](CO)C(=O)N[C@@H](C)C(=O)N[C@H](C(=O)N[C@@H](Cc1c[nH]c2ccccc12)C(=O)N[C@@H](CO)C(=O)NCC(=O)N[C@H](C(=O)N[C@@H](CCCCN)C(=O)N[C@@H](CO)C(=O)N[C@@H](CC(C)C)C(=O)N[C@@H](Cc1ccccc1)C(N)=O)[C@@H](C)CC)[C@@H](C)CC [ILSAIWSGIKSLF]
